In publication PMC7216583 (Parasites & Vectors, 2020):
Counter-ions that a name gives are not always drawn.

What was measured:
[1] = test system: VEGFR2; design: method as in library vendor description; conditions: ref library vendor description; cited from earlier work
[2] = test system: FGFR1; design: method as in library vendor description; conditions: ref library vendor description; cited from earlier work
[3] = test system: VEGFR1; design: method as in library vendor description; conditions: ref library vendor description; cited from earlier work
[4] = test system: Flk1; design: method as in library vendor description; conditions: ref library vendor description; cited from earlier work
[5] = test system: Toxoplasma gondii RH-2F tachyzoites; test: microbe, parasite or virus in culture; conditions: 72 h, read-out: Parasite inhibition (%) mean, preliminary screen, mean
[6] = molecular target: δ-opioid receptor; design: method as in library vendor description; conditions: agonist; ref library vendor description; cited from earlier work
[7] = in vitro; conditions: human
[8] = molecular target: DHFR; conditions: read-out: Ki DHFR; ref library vendor description; cited from earlier work
[9] = test system: G551D-CFTR; design: method as in library vendor description; conditions: potentiator; ref library vendor description; cited from earlier work
[10] = test system: F508del-CFTR; design: method as in library vendor description; conditions: potentiator; ref library vendor description; cited from earlier work

## Cc1cc2c(F)c(Oc3ncnn4cc(OC[C@@H](C)OC(=O)[C@H](C)N)c(C)c34)ccc2[nH]1 [Brivanib alaninate (BMS-582664)]
[1]
  IC50: 25 nM
[2]
  IC50: 148 nM
[3]
  IC50: 380 nM
[4]
  IC50: 89 nM
[5]
  inhibition of growth at 5 µM: 7.1%

## CCN(CC)C(=O)c1ccc(C2=CC3(CCNCC3)Oc3cccc(O)c32)cc1 [ADL5859 HCl]
[6]
  Ki: 0.8 nM
[5]
  inhibition of growth at 5 µM: 1.1%

## Nc1nc(=O)c2c(CCc3ccc(C(=O)N[C@H](CCC(=O)O)C(=O)O)cc3)c[nH]c2[nH]1 [Pemetrexed (Alimta)]
[7]
  viability: 84.6%
[8]
  Ki: 7.2 nM

## CC(C)(C)c1cc(C(C)(C)C)c(NC(=O)c2c[nH]c3ccccc3c2=O)cc1O [Ivacaftor (VX-770)]
[9]
  EC50: 100 nM
[10]
  EC50: 25 nM
[5]
  inhibition of growth at 5 µM: 0.6%
